System: 188146-221-R-J1-PDC complex spheroid viability
Test: Anticancer human tumor 188146-221-R-J1-PDC patient-derived colon adenocarcinoma cell line growth inhibition [POLQ]
Conditions: for IC50: curve of first compound; for viability, T/C: stronger effect = lower value
In short: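 Complex spheroid viability model combining PDC tumour cells with endothelial (HUVEC) and MSC stromal cells. Novobiocin, ART-558 or RP6685 were tested singly and in combination with standard and investigational anticancer drugs. Each was titrated in half-log steps from near clinical Cmax, or from 10 microM where Cmax was unknown.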

[1] = second compound 0.0316 µM, first compound 0.0316 µM
[2] = second compound 0.0316 µM, first compound 0.1 µM
[3] = second compound 0.0316 µM, first compound 0.316 µM
[4] = second compound 0.0316 µM, first compound 1 µM
[5] = second compound 0.1 µM, first compound 0.0316 µM
[6] = second compound 0.1 µM, first compound 0.1 µM
[7] = second compound 0.1 µM, first compound 0.316 µM
[8] = second compound 0.1 µM, first compound 1 µM
[9] = second compound 0.316 µM, first compound 0.0316 µM
[10] = second compound 0.316 µM, first compound 0.1 µM
[11] = second compound 0.316 µM, first compound 0.316 µM
[12] = second compound 0.316 µM, first compound 1 µM
[13] = second compound 1 µM, first compound 0.0316 µM
[14] = second compound 1 µM, first compound 0.1 µM
[15] = second compound 1 µM, first compound 0.316 µM
[16] = second compound 1 µM, first compound 1 µM
[17] = second compound 3.16 µM, first compound 0.0316 µM
[18] = second compound 3.16 µM, first compound 0.1 µM
[19] = second compound 3.16 µM, first compound 0.316 µM
[20] = second compound 3.16 µM, first compound 1 µM
[21] = second compound 10 µM, first compound 0.0316 µM
[22] = second compound 10 µM, first compound 0.1 µM
[23] = second compound 10 µM, first compound 0.316 µM
[24] = second compound 10 µM, first compound 1 µM
[25] = second compound 0.0316 µM, first compound 3.16 µM
[26] = second compound 0.0316 µM, first compound 10 µM
[27] = second compound 0.1 µM, first compound 3.16 µM
[28] = second compound 0.1 µM, first compound 10 µM
[29] = second compound 0.316 µM, first compound 3.16 µM
[30] = second compound 0.316 µM, first compound 10 µM
[31] = second compound 1 µM, first compound 3.16 µM
[32] = second compound 1 µM, first compound 10 µM
[33] = second compound 3.16 µM, first compound 3.16 µM
[34] = second compound 3.16 µM, first compound 10 µM
[35] = second compound 10 µM, first compound 3.16 µM
[36] = second compound 10 µM, first compound 10 µM
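Further: spheroids exposed to compounds for seven days.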
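Wherever viability, T/C is given: 100% = DMSO vehicle control viability.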

## C=CCn1c(=O)c2cnc(Nc3ccc(N4CCN(C)CC4)cc3)nc2n1-c1cccc(C(C)(C)O)n1 + Cc1cccc(N(C)C(=O)C2C(O)CCN2c2nc(C)cc(C(F)(F)F)c2C#N)c1
Second compound 0.0316 µM
  IC50: > 1000 nM
Second compound 0.1 µM
  IC50: > 1000 nM
Second compound 0.316 µM
  IC50: > 1000 nM
Second compound 1 µM
  IC50: > 1000 nM
Second compound 3.16 µM
  IC50: > 1000 nM
Second compound 10 µM
  IC50: 754 nM
Second compound 0.0316 µM, first compound 0.00316 µM
  viability, T/C: 109%
Second compound 0.0316 µM, first compound 0.01 µM
  viability, T/C: 113%
[1]
  viability, T/C: 104%
[2]
  viability, T/C: 105%
[3]
  viability, T/C: 103%
[4]
  viability, T/C: 60.9%
Second compound 0.1 µM, first compound 0.00316 µM
  viability, T/C: 112%
Second compound 0.1 µM, first compound 0.01 µM
  viability, T/C: 109%
[5]
  viability, T/C: 119%
[6]
  viability, T/C: 114%
[7]
  viability, T/C: 115%
[8]
  viability, T/C: 51.5%
Second compound 0.316 µM, first compound 0.00316 µM
  viability, T/C: 92.3%
Second compound 0.316 µM, first compound 0.01 µM
  viability, T/C: 88.7%
[9]
  viability, T/C: 105%
[10]
  viability, T/C: 107%
[11]
  viability, T/C: 110%
[12]
  viability, T/C: 59.5%
Second compound 1 µM, first compound 0.00316 µM
  viability, T/C: 109%
Second compound 1 µM, first compound 0.01 µM
  viability, T/C: 98.5%
[13]
  viability, T/C: 105%
[14]
  viability, T/C: 99%
[15]
  viability, T/C: 112%
[16]
  viability, T/C: 57.8%
Second compound 3.16 µM, first compound 0.00316 µM
  viability, T/C: 90.6%
Second compound 3.16 µM, first compound 0.01 µM
  viability, T/C: 101%
[17]
  viability, T/C: 114%
[18]
  viability, T/C: 102%
[19]
  viability, T/C: 89.7%
[20]
  viability, T/C: 56.9%
Second compound 10 µM, first compound 0.00316 µM
  viability, T/C: 90.7%
Second compound 10 µM, first compound 0.01 µM
  viability, T/C: 92.2%
[21]
  viability, T/C: 104%
[22]
  viability, T/C: 90.4%
[23]
  viability, T/C: 97%
[24]
  viability, T/C: 35.4%

## CC1COCCN1c1cc(C2(S(C)(=N)=O)CC2)nc(-c2ccnc3[nH]ccc23)n1 (stereo unspecified) + Cc1cccc(N(C)C(=O)C2C(O)CCN2c2nc(C)cc(C(F)(F)F)c2C#N)c1
Second compound 0.0316 µM
  IC50: 4900 nM
Second compound 0.1 µM
  IC50: 4650 nM
Second compound 0.316 µM
  IC50: 5330 nM
Second compound 1 µM
  IC50: 4360 nM
Second compound 3.16 µM
  IC50: 4900 nM
Second compound 10 µM
  IC50: 3210 nM
[1]
  viability, T/C: 108%
[2]
  viability, T/C: 92.9%
[3]
  viability, T/C: 97.6%
[4]
  viability, T/C: 95.7%
[25]
  viability, T/C: 65.2%
[26]
  viability, T/C: 25.1%
[5]
  viability, T/C: 114%
[6]
  viability, T/C: 98.3%
[7]
  viability, T/C: 93.9%
[8]
  viability, T/C: 89.1%
[27]
  viability, T/C: 58.7%
[28]
  viability, T/C: 27.7%
[9]
  viability, T/C: 98.4%
[10]
  viability, T/C: 96.9%
[11]
  viability, T/C: 97.9%
[12]
  viability, T/C: 90.2%
[29]
  viability, T/C: 68.5%
[30]
  viability, T/C: 27.8%
[13]
  viability, T/C: 101%
[14]
  viability, T/C: 91%
[15]
  viability, T/C: 95.7%
[16]
  viability, T/C: 91.4%
[31]
  viability, T/C: 58.2%
[32]
  viability, T/C: 28.9%
[17]
  viability, T/C: 88.5%
[18]
  viability, T/C: 103%
[19]
  viability, T/C: 81.4%
[20]
  viability, T/C: 83.8%
[33]
  viability, T/C: 63.8%
[34]
  viability, T/C: 27.2%
[21]
  viability, T/C: 90%
[22]
  viability, T/C: 78.5%
[23]
  viability, T/C: 88.8%
[24]
  viability, T/C: 62%
[35]
  viability, T/C: 53.2%
[36]
  viability, T/C: 19.4%

## COc1cc(C2c3cc4c(cc3C(OC3OC5COC(C)OC5C(O)C3O)C3COC(=O)C23)OCO4)cc(OC)c1O (stereo unspecified) + Cc1cccc(N(C)C(=O)C2C(O)CCN2c2nc(C)cc(C(F)(F)F)c2C#N)c1
Second compound 0.0316 µM
  IC50: 887 nM
Second compound 0.1 µM
  IC50: 789 nM
Second compound 0.316 µM
  IC50: 723 nM
Second compound 1 µM
  IC50: 748 nM
Second compound 3.16 µM
  IC50: 664 nM
Second compound 10 µM
  IC50: 483 nM
[1]
  viability, T/C: 115%
[2]
  viability, T/C: 99.9%
[3]
  viability, T/C: 77.3%
[4]
  viability, T/C: 47.6%
[25]
  viability, T/C: 27.5%
[26]
  viability, T/C: 25.9%
[5]
  viability, T/C: 111%
[6]
  viability, T/C: 99.2%
[7]
  viability, T/C: 77.8%
[8]
  viability, T/C: 43.5%
[27]
  viability, T/C: 25.1%
[28]
  viability, T/C: 28.3%
[9]
  viability, T/C: 108%
[10]
  viability, T/C: 102%
[11]
  viability, T/C: 71.7%
[12]
  viability, T/C: 43%
[29]
  viability, T/C: 26.4%
[30]
  viability, T/C: 28.7%
[13]
  viability, T/C: 108%
[14]
  viability, T/C: 104%
[15]
  viability, T/C: 70.5%
[16]
  viability, T/C: 45.6%
[31]
  viability, T/C: 27.2%
[32]
  viability, T/C: 30.8%
[17]
  viability, T/C: 101%
[18]
  viability, T/C: 103%
[19]
  viability, T/C: 70.1%
[20]
  viability, T/C: 40.6%
[33]
  viability, T/C: 29.4%
[34]
  viability, T/C: 31.1%
[21]
  viability, T/C: 93.1%
[22]
  viability, T/C: 79.6%
[23]
  viability, T/C: 61.2%
[24]
  viability, T/C: 32.4%
[35]
  viability, T/C: 29.1%
[36]
  viability, T/C: 32.8%
